According to US11358948B2, “CRBN ligands and uses thereof” (Kymera Therapeutics, Inc., priority 2017, dated 2022):
Structures can show the parent of a compound that is named as a salt.

Experiments:
[1] = target: His-tagged CRBN-DDB1 complex (Homo sapiens (Human), UniProt Q96SW2); assay: Time-Resolved Fluorescence Resonance Energy Transfer (TR-FRET) assay, displacement of Cy5-labeled thalidomide; format: binding; settings: read-out: CRBN HTRF IC50
Protocol: The mixture were incubated at room temperature for 1 hour. […] Quantitative loss of FRET efficiency as a function of compound concentrations was fitted by a four-parameter Logistic Function using GraphPad Prism 7.0 and the IC50 values were reported for each compound.

[2] = target: Untagged CRBN-DDB1 complex (Homo sapiens (Human), UniProt Q96SW2); assay: Fluorescence Polarization (FP) assay, displacement of Cy5-labeled thalidomide; format: binding; settings: untagged CRBN-DDB1 50 nM, Cy5-labeled thalidomide 20 nM, 10 min room temperature
Chain of Untagged CRBN-DDB1 complex (Q96SW2 whole entry): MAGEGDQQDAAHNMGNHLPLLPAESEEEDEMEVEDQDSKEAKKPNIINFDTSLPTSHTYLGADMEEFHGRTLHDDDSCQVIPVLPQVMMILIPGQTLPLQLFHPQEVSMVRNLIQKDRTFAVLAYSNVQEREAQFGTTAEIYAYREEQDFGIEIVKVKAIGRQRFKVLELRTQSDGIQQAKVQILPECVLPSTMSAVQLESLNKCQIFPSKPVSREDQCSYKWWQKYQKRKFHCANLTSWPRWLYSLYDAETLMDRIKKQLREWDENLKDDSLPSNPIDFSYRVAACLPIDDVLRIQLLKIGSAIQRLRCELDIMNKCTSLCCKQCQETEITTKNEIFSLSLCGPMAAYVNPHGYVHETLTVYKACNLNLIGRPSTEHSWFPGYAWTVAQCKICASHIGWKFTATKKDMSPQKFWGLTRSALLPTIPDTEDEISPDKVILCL
Chain of Untagged CRBN-DDB1 complex (Q16531 whole entry partner): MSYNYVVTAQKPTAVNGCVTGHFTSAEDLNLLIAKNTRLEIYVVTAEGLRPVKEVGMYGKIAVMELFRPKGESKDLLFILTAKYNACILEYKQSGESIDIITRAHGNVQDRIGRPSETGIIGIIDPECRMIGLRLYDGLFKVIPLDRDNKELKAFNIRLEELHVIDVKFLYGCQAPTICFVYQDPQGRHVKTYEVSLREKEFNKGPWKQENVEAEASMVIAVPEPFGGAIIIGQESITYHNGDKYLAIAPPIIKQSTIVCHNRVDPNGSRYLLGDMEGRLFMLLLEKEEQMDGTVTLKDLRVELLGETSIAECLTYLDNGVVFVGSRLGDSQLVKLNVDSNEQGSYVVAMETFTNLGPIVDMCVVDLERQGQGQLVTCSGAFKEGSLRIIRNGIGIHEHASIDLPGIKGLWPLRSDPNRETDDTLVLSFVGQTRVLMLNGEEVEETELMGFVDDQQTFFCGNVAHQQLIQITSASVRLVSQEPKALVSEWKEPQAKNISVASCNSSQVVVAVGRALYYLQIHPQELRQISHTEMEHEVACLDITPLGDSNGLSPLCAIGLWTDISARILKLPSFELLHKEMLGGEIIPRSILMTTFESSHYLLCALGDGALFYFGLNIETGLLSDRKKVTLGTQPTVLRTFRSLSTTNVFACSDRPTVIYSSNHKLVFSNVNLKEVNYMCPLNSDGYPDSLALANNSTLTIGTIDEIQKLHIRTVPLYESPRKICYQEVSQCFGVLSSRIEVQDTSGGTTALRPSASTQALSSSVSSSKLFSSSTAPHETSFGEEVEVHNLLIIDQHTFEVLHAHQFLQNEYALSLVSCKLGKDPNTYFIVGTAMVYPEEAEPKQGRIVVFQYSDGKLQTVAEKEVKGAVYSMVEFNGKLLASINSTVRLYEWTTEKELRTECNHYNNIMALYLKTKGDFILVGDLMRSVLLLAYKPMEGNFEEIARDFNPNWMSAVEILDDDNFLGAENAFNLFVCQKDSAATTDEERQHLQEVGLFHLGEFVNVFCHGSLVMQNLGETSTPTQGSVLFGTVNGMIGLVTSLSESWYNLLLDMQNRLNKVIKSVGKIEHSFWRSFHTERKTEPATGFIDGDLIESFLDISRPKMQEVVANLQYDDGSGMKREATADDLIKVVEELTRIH
Protocol: The final solution contained 50 mM HEPES, 200 mM NaCl and 2 mM DTT, pH 7.5. The mixtures were incubated at room temperature for 10 min. The FP signals were recorded on an EnVision plate reader (Perkin Elmer) using the following settings: Excitation Light (%): 100; Measurement Height: 12; G-Factor: 1; Detector Gain 1: 500; Detector Gain 2: 500; Flash Number: 100. Dose-dependent loss of FP signals was fitted by four-parameter Logistic Function using GraphPad Prism 7.0 and the IC50 values were reported for each compound.

Chain of His-tagged CRBN-DDB1 complex (Q96SW2 whole entry): as the sequence (Q96SW2 whole entry) above
Chain of His-tagged CRBN-DDB1 complex (Q16531 whole entry partner): as the sequence (Q16531 whole entry partner) above

| Compound | IC50 [1] [nM] | IC50 [2] [µM] |
| --- | --- | --- |
| O=C1CCC(N2C[C@H](c3cccc(Br)c3)OC2=O)C(=O)N1 (single isomer, unassigned) [Compound I-84, (R)-3-((S)-5-(3-bromophenyl)-2-oxooxazolidin-3-yl)piperidine-2,6-dione or (S)-3-((S)-5-(3-bromophenyl)-2-oxooxazolidin-3-yl)piperidine-2,6-dione] | < 1000 |  |
| O=C1CCC(N2C(=O)Cc3ccccc32)C(=O)N1 (centres unmarked) [Compound I-3, 3-(2-Oxo-2,3-dihydro-1H-indol-1-yl)piperidine-2,6-dione] | 10000 to 100000 | > 100 |
| CN(C)Cc1ccc2c(c1)n(C)c(=O)n2C1CCC(=O)NC1=O (centres unmarked) [Compound I-61, 3-(5-((dimethylamino)methyl)-3-methyl-2-oxo-2,3-dihydro-1H-benzo[d]imidazol-1-yl)piperidine-2,6-dione] | 1000 to 10000 |  |
| CC(=O)Nc1ccc2c(c1)n(C)c(=O)n2C1CCC(=O)NC1=O (centres unmarked) [Compound I-62, N-(1-(2,6-dioxopiperidin-3-yl)-3-methyl-2-oxo-2,3-dihydro-1H-benzo[d]imidazol-5-yl)acetamide] | < 1000 |  |
| Cc1ccc2c(c1)n(C)c(=O)n2C1CCC(=O)NC1=O (centres unmarked) [Compound I-63, 3-(3,5-dimethyl-2-oxo-2,3-dihydro-1H-benzo[d]imidazol-1-yl)piperidine-2,6-dione] | < 1000 |  |
| Cn1c(=O)n(C2CCC(=O)NC2=O)c2ccc(CN)cc21 (centres unmarked) [Compound I-64, 3-(5-(Aminomethyl)-3-methyl-2-oxo-2,3-dihydro-1H-benzo[d]imidazol-1-yl)piperidine-2,6-dione] | < 1000 |  |
| Cn1c(=O)n(C2CCC(=O)NC2=O)c2ccc(N)cc21 (centres unmarked) [Compound I-65, 3-(5-Amino-3-methyl-2-oxo-2,3-dihydro-1H-1,3-benzodiazol-1-yl)piperidine-2,6-dione Hydrochloride] | < 1000 |  |
| CC(=O)NCc1ccc2c(c1)n(C)c(=O)n2C1CCC(=O)NC1=O (centres unmarked) [Compound I-66, N-((1-(2,6-dioxopiperidin-3-yl)-3-methyl-2-oxo-2,3-dihydro-1H-benzo[d]imidazol-5-yl)methyl)acetamide] | < 1000 |  |
| CCNC(=O)Nc1ccc2c(c1)n(C)c(=O)n2C1CCC(=O)NC1=O (centres unmarked) [Compound I-67, 1-(1-(2,6-dioxopiperidin-3-yl)-3-methyl-2-oxo-2,3-dihydro-1H-benzo[d]imidazol-5-yl)-3-ethylurea] | < 1000 |  |
| CNc1ccc2c(c1)n(C)c(=O)n2C1CCC(=O)NC1=O (centres unmarked) [Compound I-68, 3-(3-methyl-5-(methylamino)-2-oxo-2,3-dihydro-1H-benzo[d]imidazol-1-yl)piperidine-2,6-dione] | < 1000 |  |
| CN(C)c1ccc2c(c1)n(C)c(=O)n2C1CCC(=O)NC1=O (centres unmarked) [Compound I-69, 3-(5-(dimethylamino)-3-methyl-2-oxo-2,3-dihydro-1H-benzo[d]imidazol-1-yl)piperidine-2,6-dione] | < 1000 |  |
| CNC(=O)c1ccc2c(c1)n(C)c(=O)n2C1CCC(=O)NC1=O (centres unmarked) [Compound I-70, 1-(2,6-Dioxopiperidin-3-yl)-N,3-dimethyl-2-oxo-2,3-dihydro-1H-benzo[d]imidazole-5-carboxamide] | 1000 to 10000 |  |
| CCNC(=O)NCc1ccc2c(c1)n(C)c(=O)n2C1CCC(=O)NC1=O (centres unmarked) [Compound I-71, 1-((1-(2,6-dioxopiperidin-3-yl)-3-methyl-2-oxo-2,3-dihydro-1H-benzo[d]imidazol-5-yl)methyl)-3-ethylurea] | < 1000 |  |
| O=C1CC[C@@H](N2C[C@H](c3ccc(Br)cc3)OC2=O)C(=O)N1 [Compound I-72, (R)-3-((S)-5-(4-bromophenyl)-2-oxooxazolidin-3-yl)piperidine-2,6-dione] | < 1000 |  |
| O=C1CC[C@H](N2C[C@H](c3ccc(Br)cc3)OC2=O)C(=O)N1 [Compound I-73, (S)-3-((S)-5-(4-bromophenyl)-2-oxooxazolidin-3-yl)piperidine-2,6-dione] | 10000 to 100000 |  |
| Cn1c(=O)n(C2CCC(=O)NC2=O)c2ccc(CNC(N)=O)cc21 (centres unmarked) [Compound I-74, 1-((1-(2,6-dioxopiperidin-3-yl)-3-methyl-2-oxo-2,3-dihydro-1H-benzo[d]imidazol-5-yl)methyl)urea] | < 1000 |  |
| Cn1c(=O)n(C2CCC(=O)NC2=O)c2cccc([N+](=O)[O-])c21 (centres unmarked) [Compound I-75, 3-(3-methyl-4-nitro-2-oxo-2,3-dihydro-1H-1,3-benzodiazol-1-yl)piperidine-2,6-dione] | < 1000 |  |
| CCOC(=O)NCc1ccc2c(c1)n(C)c(=O)n2C1CCC(=O)NC1=O (centres unmarked) [Compound I-76, ethyl ((1-(2,6-dioxopiperidin-3-yl)-3-methyl-2-oxo-2,3-dihydro-1H-benzo[d]imidazol-5-yl)methyl)carbamate] | < 1000 |  |
| CC(C)(C)OC(=O)NCCOCCOCCOCCOCC#Cc1ccc([C@H]2CN([C@H]3CCC(=O)NC3=O)C(=O)O2)cc1 [Compound I-77, tert-butyl (15-(4-((S)-3-((S)-2,6-dioxopiperidin-3-yl)-2-oxooxazolidin-5-yl)phenyl)-3,6,9,12-tetraoxapentadec-14-yn-1-yl)carbamate] | < 1000 |  |
| Cn1c(=O)n(C2CCC(=O)NC2=O)c2cccc(C#N)c21 (centres unmarked) [Compound I-78] | < 1000 |  |
| Cc1cc(-c2ccc3c(c2)n(C)c(=O)n3C2CCC(=O)NC2=O)n[nH]1 (centres unmarked) [Compound I-79, 3-(3-methyl-5-(3-methyl-1H-pyrazol-5-yl)-2-oxo-2,3-dihydro-1H-benzo[d]imidazol-1-yl)piperidine-2,6-dione] | < 1000 |  |
| Cc1nc(-c2ccc3c(c2)n(C)c(=O)n3C2CCC(=O)NC2=O)c[nH]1 (centres unmarked) [Compound I-80, 3-(3-methyl-5-(2-methyl-1H-imidazol-5-yl)-2-oxo-2,3-dihydro-1H-benzo[d]imidazol-1-yl)piperidine-2,6-dione] | < 1000 |  |
| Cn1c(=O)n(C2CCC(=O)NC2=O)c2cccc(N)c21 (centres unmarked) [Compound I-81, 3-(4-amino-3-methyl-2-oxo-2,3-dihydro-1H-benzo[d]imidazol-1-yl)piperidine-2,6-dione] | < 1000 |  |
| Cn1c(=O)n(C2CCC(=O)NC2=O)c2ccc(-c3cn(CCOCCOCCOCCNC(=O)OC(C)(C)C)nn3)cc21 (centres unmarked) [Compound I-82, tert-butyl (2-(2-(2-(2-(4-(1-(2,6-dioxopiperidin-3-yl)-3-methyl-2-oxo-2,3-dihydro-1H-benzo[d]imidazol-5-yl)-1H-1,2,3-triazol-1-yl)ethoxy)ethoxy)ethoxy)ethyl)carbamate] | < 1000 |  |
| CC(C)(C)OC(=O)NCCOCCOCCOCCOCCCc1ccc([C@H]2CN(C3CCC(=O)NC3=O)C(=O)O2)cc1 (stereo partly drawn) [Compound I-83, tert-butyl (15-(4-((5S)-3-(2,6-dioxopiperidin-3-yl)-2-oxooxazolidin-5-yl)phenyl)-3,6,9,12-tetraoxapentadecyl)carbamate] | < 1000 |  |
| Cn1c(=O)n(C2CCC(=O)NC2=O)c2ccc(CCCOCCOCCOCCOCCNC(=O)OC(C)(C)C)cc21 (centres unmarked) [Compound I-85, tert-butyl (15-(1-(2,6-dioxopiperidin-3-yl)-3-methyl-2-oxo-2,3-dihydro-1H-benzo[d]imidazol-5-yl)-3,6,9,12-tetraoxapentadecyl)carbamate] | < 1000 |  |
| Cn1c(=O)n(C2CCC(=O)NC2=O)c2cccc(C#CCOCCOCCNC(=O)OC(C)(C)C)c21 (centres unmarked) [Compound I-86, tert-butyl (2-(2-((3-(1-(2,6-dioxopiperidin-3-yl)-3-methyl-2-oxo-2,3-dihydro-1H-benzo[d]imidazol-4-yl)prop-2-yn-1-yl)oxy)ethoxy)ethyl)carbamate] | < 1000 |  |
| Cn1c(=O)n(C2CCC(=O)NC2=O)c2ccc(C(N)=O)cc21 (centres unmarked) [Compound I-90, 1-(2,6-dioxopiperidin-3-yl)-3-methyl-2-oxo-2,3-dihydro-1H-benzo[d]imidazole-5-carboxamide] | > 100000 |  |
